# Measurements published in US20220233652A1, “Pharmaceutical Compositions Comprising Integration-Promoting Peptides” (priority 2018, published 2022).
# Read-outs that look alike come from different tables or passages of the source. No end group written: not given here.
# Experiments:
# [1] = Preliminary solubility test of INS peptide salts in co-solvents and water; type: physicochemical; details: for solubility: read-out: Approximate Solubility; for Solubility in PBS: physiological conditions
# Experimental: Solubility of different INS peptide salts was measured in several co-solvents and in water.
# [2] = Stability of formulations F4, F7 and F10 (HPLC); type: physicochemical; details: F4, F7 and F10, ambient temperature and 4° C., 24 hours
# Experimental: To investigate the stability of formulation F4, F7 and F10 they were stored at ambient temperature and at 4° C. Samples were taken out at time zero (initial) and after 24 hours and diluted 10 times with water prior to HPLC analysis. The results were compared to the standard peptide 0.5 mg/ml in water (STD).
# [3] = Stability study of lyophilized formulation after reconstitution; type: physicochemical
# Experimental: To obtain an isotonic solution having desired osmolality of about 300-330 mOsm/kg, the poloxamer percentage was reduced to 0.8% and the lactose percentage was reduced to 9.5%. The solution formulation F45 was prepared in a 40 ml clear glass vial according to Table 20. The pH was adjusted by NH4OH. […]
# The physical and chemical stability of lyophilized powder obtained in Example 10 was investigated. The lyophilized powder was stored at −20° C. […] Formulations before filtration were used as a control (initial state) at each time point. […] At the time point: 0 h, 24 hours and 7 days appearance, pH and osmolarity were tested and the solutions were analyzed by HPLC for the presence of degradation. The recovery percent after filtration was also calculated. To investigate short-term in-use stability, additional 218 mg of lyophilized material was reconstituted, and the solution was stored at room temperature for 4 hours. […]
# [4] = tested on: 1975 human lung cancer cells; experiment: Lung cancer tumor mice model; type: in vivo, athymic nude mice; details: INS HCL and tumor-targeted lentiviral particles; lung cancer and pancreatic cancer models
# Experimental: Two models of cancer were generated: lung cancer and pancreatic cancer. About 5×10^6 of 1975 human lung cancer cells per 0.1 ml PBS per mouse were injected to male 7 weeks old athymic nude mice (n=30). The cells were injected, subcutaneously at one site on the back of the mice. About 5×10^6 PANC-1 human pancreatic cancer cells per 0.1 ml PBS per mouse were injected to male 7 weeks old athymic nude mice (n=22). The cells were injected, subcutaneously at one site on the back of the mice. When tumors were palpable (˜0.3-0.5 cm^3), the mice were randomly divided into three groups (Table 27) and the viruses and/or peptides were injected, twice a week for two weeks.
# The first day of the study was defined as ‘Day 1’. The animals were administrated IP with either Vehicle (PBS or Formulation), lentiviral particles and SC with test items according to Table 27 on days 1, 4, 8 and 11. Body weight and tumor volume were checked on days 3, 7, 11, 14 and 17 (the latter was measured with a caliper). At the end of the experiment, on day 17, the mice were anesthetized and then sacrificed, and the tumors were removed, as well as lung, spleen, kidney and liver.
# [5] = Phase I/IIa clinical trial: safety and tolerability; type: in vivo, human; details: HIV patients, SC twice weekly, 1% poloxamer 188 and 9% lactose formulation; preliminary results
# Source text: Patients are monitored for adverse events (AE) of the INS peptide such as rash, acute allergic reaction, bronchospasm, respiratory distress, and acute vascular leak syndrome. If a severe administration related reaction occurs, the drug administration is stopped. Blood chemistry, hematology, coagulation, and urinalysis are repeated on Days 1, 4, 8, 11, 15, 18, 22, 25 at the clinic visits.
# The primary safety endpoint is the frequency, severity, and duration of side effects. Number of participants with treatment-related adverse events as assessed by CTCAE v4.03, are evaluated though study completion. Main adverse events evaluation is based on DADS Toxicity criteria (Division of AIDS DADS Table for Grading the Severity of Adult and Paediatric Adverse Events, Corrected Version 2.1): • Viral load • Lymphopenia/Neutropenia • Immuno-reaction over reaction/cytokine storm • Infection surrounding the administration site • Liver function (lab tests) • Kidney function (lab tests)
# Incidence of withdrawal (drop-out rate) due to side effects is evaluated throughout the study.
sequence,measurement,setting,value
WTAVQMAVFIHNFKRK [INS HCl],solubility,[1]; DMSO,≤ 10000 µg/mL
same,Appearance in H2O,[1]; H2O,slightly opalescence
same,pH in H2O,"[1]; H2O, 10 mg/ml",2.60
same,Approximate Solubility,[1]; PBS,Not soluble
same,Solubility in PBS,[1]; PBS,practically insoluble
same,Solubility in PEG400,[1]; PEG400,poor solubility
same,solubility,[1]; PEG400,< 5000 µg/mL
same,Appearance in propylene glycol,"[1]; Propylene glycol (PG), 5mg/ml",clear solution
same,Solubility in ethanol,[1]; ethanol,poor solubility
same,solubility,[1]; ethanol,< 5000 µg/mL
same,solubility,[1]; propylene glycol (PG),5000 to 10000 µg/mL
same,Solubility in PG,"[1]; propylene glycol, a clear solution was obtained",moderate solubility
same,Appearance of solution in water,[1]; water,solution with opalescence
same,pH of solution in water,[1]; water,2.6
same,solubility,"[1]; water, pH 2.6, H2O",> 10000 µg/mL
same,Stability in formulations,[2],high stability in all formulations
same,Peptide adsorbed to PES filters,[3]; PES filters,about 30%
same,Time stable at room temperature after reconstitution,"[3]; room temperature, no significant difference in comparison to control",at least 4 hours
same,Decrease in growth of tumors,[4],up to 50%
same,Safety and tolerability,[5],safe and well tolerable
WTAVQMAVFIHNFKRK [INS TFA],Concentration dissolved in DMSO,[1]; DMSO,≤ 10000 µg/mL
same,Behaviour upon dilution in PBS,[1]; solution in water or DMSO diluted in PBS,precipitated
same,Concentration dissolved in water,[1]; water,≤ 10000 µg/mL
WTAVQMAVFIHNFKRK [INS acetate],Solubility in DMSO,[1]; DMSO,completely insoluble
same,Solubility in PBS,[1]; PBS,completely insoluble
same,pH above which the dissolved salt precipitated,"[1]; dissolved in low pH, pH raised",above 4
same,Solubility in water,[1]; water,soluble
